One data set has as its system Boophilus microplus. As to the kind of experiment: Boophilus microplus test (BOOPMI injection). Format: in vivo. Conditions: 20 μg/animal, injected into the abdomen, after 7 days. As to the method:
Solvent: Dimethyl Sulphoxide To produce a suitable preparation of active compound, 10 mg of active compound are mixed with 0.5 ml of solvent, and the concentrate is diluted with water to the desired concentration. The active compound solution is injected into the abdomen (Boophilus microplus) and the animals are transferred into dishes and stored in a climatized room. The activity is monitored for deposition of fertile eggs. After 7 days, the activity in % is determined. 100% means that none of the ticks has laid fertile eggs.

Data set [1] can be described thus: logP by HPLC on reversed-phase columns (C 18), EU Guideline 79/831 Annex V.A8. Conditions: for chromatographic logP: reversed-phase HPLC column (C 18). It is filed as physicochemical.
The test system of another data set is Ctenocephalides felis. As to the kind of experiment: Ctenocephalides felis oral (CTECFE). It is filed as in vivo. Conditions: 100 ppm in citrated cattle blood, after 2 days. As to the method: Solvent: 1 part by weight of dimethyl sulphoxide To produce a suitable preparation of active compound, 10 mg of active compound are mixed with 0.5 ml of dimethyl sulphoxide. One part of the concentrate is diluted with citrated cattle blood, and the desired concentration is prepared. 20 unfed adult fleas (Ctenocephalides felis) are placed into a chamber whose top and bottom ends are closed with gauze. A metal cylinder whose bottom end is closed with parafilm is placed onto the chamber. The cylinder contains the blood/active compound preparation, which can be taken up by the fleas through the parafilm membrane. After 2 days, the kill in % is determined. 100% means that all fleas have been killed; 0% means that none of the fleas have been killed.

Data set [2] deals with larvae of the mustard beetle (Phaedon cochleariae). As to the kind of experiment: Phaedon test (PHAECO spray treatment). Format: in vivo. Conditions: after 7 days. On the procedure: (§1) Solvents: 78.0 parts by weight of acetone • • 1.5 parts by weight of dimethyl formamide Emulsifier: 0.5 part by weight of alkylaryl polyglycol ether To produce a suitable preparation of active compound, 1 part by weight of active compound is mixed with the stated amounts of solvent and emulsifier, and the concentrate is diluted with emulsifier-containing water to the desired concentration. Discs of Chinese cabbage leaves (Brassica pekinensis) are sprayed with an active compound preparation of the desired concentration and, after drying, populated with larvae of the mustard beetle (Phaedon cochleariae). After 7 days, the activity in % is determined. 100% means that all beetle larvae have been killed; 0% means that none of the beetle larvae have been killed. The test was carried out and evaluated as described in Example B.4.

The next data set has as its system Lucilia cuprina larvae. As to the kind of experiment: Lucilia cuprina test (LUCICU). It is filed as in vivo. Conditions: 100 ppm, treated horse meat, after 2 days. On the procedure:
Solvent: Dimethyl Sulphoxide To produce a suitable preparation of active compound, 10 mg of active compound are mixed with 0.5 ml of dimethyl sulphoxide, and the concentrate is diluted with water to the desired concentration. Containers containing horse meat treated with the active compound preparation of the desired concentration are populated with Lucilia cuprina larvae. After 2 days, the kill in % is determined. 100% means that all larvae have been killed; 0% means that none of the larvae have been killed.

The subject of data set [3] is caterpillars of the army worm (Spodoptera frugiperda). As to the kind of experiment: Spodoptera frugiperda test (SPODFR spray treatment). Format: in vivo. Conditions: after 7 days. As to the method:
as §1, with “maize” for “Chinese cabbage”, “(Zea mays)” for “(Brassica pekinensis)”, “caterpillars” for “larvae”, “army worm (Spodoptera frugiperda).” for “mustard beetle (Phaedon cochleariae).”, “caterpillars” for “beetle larvae”, “B.5.” for “B.4.”

The next data set relates to adult Musca domestica. As to the kind of experiment: Musca domestica test (MUSCDO). Format: in vivo. Conditions: treated sponge. As to the method: Solvent: Dimethyl sulphoxide To prepare a suitable preparation of active compound, 10 mg of active component are mixed with 0.5 ml of dimethyl sulphoxide, and the concentrate is diluted with water to the desired concentration. Vessels containing a sponge which had been treated with the active compound preparation of the desired concentration are populated with adult Musca domestica. After the desired period of time, the kill in % is determined. 100% means that all flies have been killed; 0% means that none of the flies have been killed.

Where [4] appears, read: * LC-MS in the acidic range, pH 2.7, 0.1% aqueous formic acid and acetonitrile.
[5] abbreviates: ** LC-MS in the neutral range, pH 7.8, 0.001 molar aqueous ammonium bicarbonate and acetonitrile.

Take `CN(C)C=Nc1c(-c2cc(Cl)cc(C(F)(F)F)c2)c(C(F)(F)F)nn1-c1ncccn1` [Example 1-2]: in the data set with Boophilus microplus, the “activity (no deposition of fertile eggs)” value came to 95%. The lipophilicity (logP) in data set [1] (setting [4]) was 3.89*; in data set [1] (setting [5]), 3.84**;. Moreover, the kill in the data set on Ctenocephalides felis and in the data set on Lucilia cuprina larvae was 100% each time. For the same compound, the “activity (beetle larvae killed)” value in data set [2] (100 g/ha) came out at 100%.

Turning to `CN(C)C=Nc1c(-c2ccc(Cl)c(Cl)c2)c(C(F)(F)F)nn1-c1ncccn1` [Example 1-3], the “activity (no deposition of fertile eggs)” value with Boophilus microplus came to 100%. Further, the logP in data set [1] (setting [4]) is recorded as 3.37*. Also, the kill in the data set with Ctenocephalides felis and in the data set on Lucilia cuprina larvae was 100% each time. Further, the “activity (beetle larvae killed)” value in data set [2] (100 g/ha) worked out at 100%.

As for `CN(C)C=Nc1c(-c2ccc(Cl)cc2)c(C(F)(F)Cl)nn1-c1ncccn1` [Example 1-4], in data set [1] (setting [4]), the logP is recorded as 2.8*. Also, the “activity (beetle larvae killed)” value in data set [2] (100 g/ha) stood at 100%.

For `COc1ccc(-c2c(C(F)(F)F)nn(-c3ncccn3)c2N=CN(C)C)cc1` [Example 1-5], in the data set with Boophilus microplus, the “activity (no deposition of fertile eggs)” value turned out to be 100%. Besides, the lipophilicity (logP) in data set [1] (setting [4]) is 1.87*.

As to `Cc1cnc(-n2nc(C(F)(F)F)c(-c3ccc(Cl)c(Cl)c3)c2N=CN(C)C)nc1` [Example 1-6], the lipophilicity (logP) in data set [1] (setting [4]) is 3.58*.

As for `Cc1nn(-c2ncccn2)c(N=CN(C)C)c1-c1ccc(Cl)cc1` [Example 1-7], the logP in data set [1] (setting [4]) was 1.09*. The “activity (beetle larvae killed)” value in data set [2] (100 g/ha) worked out at 100%.

Turning to `CN(C)C=Nc1c(-c2cccc(Cl)c2)c(C(F)(F)F)nn1-c1ncccn1` [Example 1-8], the lipophilicity (logP) in data set [1] (setting [4]) is 2.65*. In data set [2] (100 g/ha), the “activity (beetle larvae killed)” value was determined as 100%.

Consider `CN(C)/C=N/c1c(-c2cc(Cl)cc(Br)c2)c(C(F)(F)F)nn1-c1ncccn1` [Example 1-9, N′-[4-(3-bromo-5-chlorophenyl)-1-(pyrimidin-2-yl)-3-(trifluoromethyl)-1H-pyrazol-5-yl]-N,N-dimethylimidoformamide], for which the “activity (caterpillars killed)” value in data set [3] (100 g/ha) came to 100%. Besides, the “activity (no deposition of fertile eggs)” value in the data set on Boophilus microplus amounted to 100%. Moreover, the chromatographic logP in data set [1] (pH 2.7, * LC-MS in the acidic range, pH 2.7, 0.1% aqueous formic acid and acetonitrile) amounted to 3.71. Further, the kill in the data set with Ctenocephalides felis and in the data set with Lucilia cuprina larvae was 100% in each case. Besides, the “activity (beetle larvae killed)” value in data set [2] (100 g/ha) is given as 100%.

`CCOC(C)=Nc1c(-c2cc(Cl)cc(C(F)(F)F)c2)c(C(F)(F)F)nn1-c1ncccn1` [Example 1-14]: the “activity (no deposition of fertile eggs)” value with Boophilus microplus is recorded as 80%. In addition, the log partition coefficient (logP) in data set [1] (setting [5]) is 5.01**. In addition, the kill in the data set with Ctenocephalides felis was 90%; with adult Musca domestica (100 ppm) it was 80%; with Lucilia cuprina larvae, 100%. Besides, in data set [2] (100 g/ha), the “activity (beetle larvae killed)” value was 100%.

As to `FC(F)(F)c1cc(Cl)cc(-c2c(C(F)(F)F)nn(-c3ncccn3)c2N=Cc2ccc(Cl)cc2)c1` [Example 1-16], in the data set with Boophilus microplus, the “activity (no deposition of fertile eggs)” value was found to be 100%. Besides, the logP in data set [1] (setting [5]) is listed as 5.53**. The “activity (beetle larvae killed)” value in data set [2] (20 g/ha) and in data set [2] (100 g/ha) was 100% each time.

As to `FC(F)(F)c1cc(Cl)cc(-c2c(C(F)(F)F)nn(-c3ncccn3)c2N=Cc2ccccc2Br)c1` [Example 1-31], the “activity (no deposition of fertile eggs)” value in the data set on Boophilus microplus turned out to be 100%. Besides, the logP in data set [1] (setting [5]) is 5.64**. Further, the kill in the data set on Ctenocephalides felis is given as 90%; in the data set with adult Musca domestica (20 ppm), 90%; in the data set with Lucilia cuprina larvae, 100%. Also, the “activity (beetle larvae killed)” value in data set [2] (100 g/ha) is on record as 100%.

For `FC(F)(F)c1nn(-c2ncccn2)c(N=Cc2ccccc2)c1-c1cc(Br)c2c(c1)CCO2` [Example 1-32], the “activity (no deposition of fertile eggs)” value in the data set with Boophilus microplus is given as 100%. Besides, in data set [1] (setting [5]), the logP was 4.11**. Besides, the kill with Ctenocephalides felis and in the data set on Lucilia cuprina larvae was 100% in each case. The “activity (beetle larvae killed)” value in data set [2] (100 g/ha) is recorded as 100%.

On to `FC(F)(F)c1cc(Cl)cc(-c2c(C(F)(F)F)nn(-c3ncccn3)c2N=Cc2cccc(Br)c2)c1` [Example 1-39], for which the “activity (no deposition of fertile eggs)” value in the data set on Boophilus microplus worked out at 100%. The kill in the data set on Ctenocephalides felis amounted to 80%; in the data set with adult Musca domestica (100 ppm), 100%; in the data set with Lucilia cuprina larvae it was 100%. In data set [2] (100 g/ha), the “activity (beetle larvae killed)” value stood at 100%.

The compound `COC=Nc1c(-c2ccc(Cl)c(C(F)(F)F)c2)c(C(F)(F)F)nn1-c1ncccn1` [Example 1-91] registered a logP in data set [1] (setting [4]) of 3.71.

For `CN(C)C=Nc1c(-c2ccc(Cl)cc2)c(C(F)(F)F)nn1-c1ncc(Cl)cn1` [Example 1-108], the logP in data set [1] (setting [4]) was 3.47*.

On to `COc1nccnc1-n1nc(C(F)(F)F)c(-c2cc(Cl)cc(C(F)(F)F)c2)c1N=CN(C)C` [Example 2-1], for which, in data set [1] (setting [4]), the logP is reported as 4.52*. Moreover, the kill with Ctenocephalides felis amounted to 80%.

As to `CCOc1nccnc1-n1nc(C(F)(F)F)c(-c2cc(Cl)cc(C(F)(F)F)c2)c1N=CN(C)C` [Example 2-2], the logP in data set [1] (setting [4]) is given as 4.86*.

Consider `CC(C)Oc1nccnc1-n1nc(C(F)(F)F)c(-c2cc(Cl)cc(C(F)(F)F)c2)c1N=CN(C)C` [Example 2-3], for which the logP in data set [1] (setting [4]) is reported as 5.17*.

As to `CN(C)C=Nc1c(-c2cc(Cl)cc(C(F)(F)F)c2)c(C(F)(F)F)nn1-c1cnccn1` [Example 2-4], the lipophilicity (logP) in data set [1] (setting [4]) is 4.32*.

For the compound `COc1ccc(C=Nc2c(-c3cc(Cl)c4c(c3)OCO4)c(C(F)(F)F)nn2-c2nccnc2OC)cc1` [Example 2-5], in the data set on Boophilus microplus, the “activity (no deposition of fertile eggs)” value is on record as 100%. In addition, in data set [1] (setting [5]), the logP was 4.5**. Also, the kill in the data set with Ctenocephalides felis and with Lucilia cuprina larvae was 100% each time.

For `COc1nccnc1-n1nc(C(F)(F)F)c(-c2cc(Cl)cc(C(F)(F)F)c2)c1N=Cc1ccccc1` [Example 2-9], the “activity (no deposition of fertile eggs)” value in the data set on Boophilus microplus turned out to be 100%. Besides, in data set [1] (setting [5]), the logP is 5.56**. Moreover, the kill in the data set on Ctenocephalides felis is 90%; with adult Musca domestica (20 ppm), 100%; in the data set on Lucilia cuprina larvae it was 100%. In data set [2] (100 g/ha), the “activity (beetle larvae killed)” value is reported as 100%.

As to `COc1ccc(C=Nc2c(-c3cc(Cl)cc(C(F)(F)F)c3)c(C(F)(F)C(F)F)nn2-c2nccnc2OC)cc1` [Example 2-10], in data set [1] (setting [5]), the lipophilicity (logP) was 5.29**.

Regarding `COc1ccc(C=Nc2c(-c3cc(Cl)c4c(c3)OCO4)c(C(F)(F)C(F)F)nn2-c2nccnc2OC)cc1` [Example 2-12], the “activity (caterpillars killed)” value in data set [3] (100 g/ha) worked out at 100%. Further, the logP in data set [1] (setting [5]) is listed as 4.41**. In data set [2] (100 g/ha), the “activity (beetle larvae killed)” value came out at 100%.

For the compound `COc1nccnc1-n1nc(C(F)(F)F)c(-c2cc(Cl)c(Cl)c(Cl)c2)c1/N=C/c1ccccc1` [Example 2-15, 1-(3-methoxypyrazin-2-yl)-N-phenylmethylene-4-(3,4,5-trichlorophenyl)-3-(trifluoromethyl)-1H-pyrazol-5-amine], in the data set on Boophilus microplus, the “activity (no deposition of fertile eggs)” value was found to be 100%. Further, in data set [1] (pH 7.8, ** LC-MS in the neutral range, pH 7.8, 0.001 molar aqueous ammonium bicarbonate and acetonitrile), the chromatographic logP was found to be 6.03. For the same compound, the values for the kill with Ctenocephalides felis and with Lucilia cuprina larvae were 90% and 100%, respectively.

As to `FC(F)(F)c1cc(Cl)cc(-c2c(C(F)(F)F)nn(-c3ncccn3)c2NCc2ccccc2)c1` [compound (XX), reference compound], the “activity (caterpillars killed)” value in data set [3] (20 g/ha) came to 0%. Besides, the “activity (beetle larvae killed)” value in data set [2] (4 g/ha) is given as 0%.

Take `FC(F)(F)c1cc(Cl)cc(-c2c(C(F)(F)F)nn(-c3ncccn3)c2NCc2ccc(Cl)cc2)c1` [compound (XXIII), reference compound]: the “activity (beetle larvae killed)” value in data set [2] (20 g/ha) is listed as “no activity”.

The logP is a log measure of how a compound divides between an organic and an aqueous phase. Read a high logP as higher lipophilicity. A word on the chromatographic logP: it is a lipophilicity value derived from retention on a column. The low end stands for a more hydrophilic compound, the high end for a more lipophilic compound.

Values taken from patent US8629273B2, “Diazinylpyrazolyl compounds” (Bayer Intellectual Property GmbH, priority 2009, dated 2014).
